Results on three molecules are retold here after patent publication US4120953A, “Novel 2,2', 2"-[s-phenenyltris(sulfonylimino)tris]-[2-deoxy-α-D-glucopyranose] , dodecakis (H-sulfate) compounds and their salts” (American Cyanamid Company, priority 1977, dated 1978).

Where a name gives a salt, the structure may show the parent alone.

Assay [1] relates to shunt pathway activated by cobra venom factor. In words: Test, Code 036 (C-Shunt inhibitor). To be noted: serial two-fold dilution assay; lysis of fragile human erythrocytes in autologous serum. In kind it is cell-based.
Assay [2] has as its system late components of human complement (C3-C9). In words: Test, Code 035 (C3-C9 inhibitor). The format is biochemical. Further details: key: N = negative. To be noted: serial two-fold dilution assay; protection of EAC 142 from lysis by human C3-C9. The procedure:
(§1) This test measures the ability of activated human C1 to destroy fluid phase human C2 in the presence of C4 and appropriate dilutions of the test compound. An active inhibitor protects C2 from C1 and C4; (ii) Test, Code 035 (C3-C9 inhibitor) - This test determines the ability of the late components of human complement (C3-C9) to lyse EAC 142 in the presence of appropriate dilutions of the test compound. […] The lesion is measured in terms of diameter, edema and hemorrhage and the extent to which a combined index of these is inhibited by prior intraperitoneal injection of the test compound at […] is then reported, unless otherwise stated; (v) Forssman Shock Test -- Lethal shock is produced in guinea pigs by an i.v. injection of anti-Forssman antiserum and the harmonic mean death time of treated guinea pigs is compared with that of simultaneous controls; (vi) Complement Level Reduction Test -- In this test, the above dosed guinea pigs, or others, are bled for serum and the complement level is determined in undiluted serum by the capillary tube method of U.S. Pat. No. 3,876,376 and compared to undosed control guinea pigs; and (vii) Cap 50 Test -- Here, appropriate amounts of the test compound are added to a pool of guinea pig serum in vitro, after which the undiluted serum capillary tube assay referred to above is run. […]

In another assay the target is activated human C1 (Homo sapiens, UniProt P09871). In words: Test, Code 026 (C1 inhibitor). The format is biochemical. Conditions: serial two-fold dilution assay; higher well numbers indicate higher activity; protection of human C2 from C1 and C4. The protocol: as §1

Take `O=S(=O)(O)OC[C@H]1O[C@H](OS(=O)(=O)O)[C@H](NS(=O)(=O)c2cc(S(=O)(=O)N[C@H]3[C@@H](OS(=O)(=O)O)O[C@H](COS(=O)(=O)O)[C@@H](OS(=O)(=O)O)[C@@H]3OS(=O)(=O)O)cc(S(=O)(=O)N[C@H]3[C@@H](OS(=O)(=O)O)O[C@H](COS(=O)(=O)O)[C@@H](OS(=O)(=O)O)[C@@H]3OS(=O)(=O)O)c2)[C@@H](OS(=O)(=O)O)[C@@H]1OS(=O)(=O)O` [2,2',2"-[ s-Phenenyltris(sulfonylimino)]-tris[2-deoxy-α-D-gl] [2,2',2"-[s-Phenenyltris(sulfonylimino)]tris[2-deoxy-α-D-glucopyranose], dodecakis (H-sulfate) dodecasalt with trimethylamine]: the “In Vitro Activity Shunt Inhibition 036 Wells” value in assay [1] is recorded as “+2 Wells”.
On to `O=S(=O)(O)OC[C@H]1O[C@H](OS(=O)(=O)O)[C@H](NS(=O)(=O)c2cc(S(=O)(=O)N[C@H]3[C@@H](OS(=O)(=O)O)O[C@H](COS(=O)(=O)O)[C@@H](OS(=O)(=O)O)[C@@H]3OS(=O)(=O)O)cc(S(=O)(=O)N[C@H]3[C@@H](OS(=O)(=O)O)O[C@H](COS(=O)(=O)O)[C@@H](OS(=O)(=O)O)[C@@H]3OS(=O)(=O)O)c2)[C@@H](OS(=O)(=O)O)[C@@H]1OS(=O)(=O)O` [2,2',2"-[s-Phenenyltris(sulfonylimino)]-tris[2-deoxy-α-D-glu] [2,2',2"-[s-Phenenyltris(sulfonylimino)]tris[2-deoxy-α-D-glucopyranose], dodecakis (H-sulfate) dodecasodium salt], for which the “In Vitro Activity Shunt Inhibition 036 Wells” value in assay [1] was “+1 Wells”.
As for `O=S(=O)(O)OC[C@H]1O[C@H](OS(=O)(=O)O)[C@H](NS(=O)(=O)c2cc(S(=O)(=O)N[C@H]3[C@@H](OS(=O)(=O)O)O[C@H](COS(=O)(=O)O)[C@@H](OS(=O)(=O)O)[C@@H]3OS(=O)(=O)O)cc(S(=O)(=O)N[C@H]3[C@@H](OS(=O)(=O)O)O[C@H](COS(=O)(=O)O)[C@@H](OS(=O)(=O)O)[C@@H]3OS(=O)(=O)O)c2)[C@@H](OS(=O)(=O)O)[C@@H]1OS(=O)(=O)O` [2,2',2"-[s-Phenenyltris(sulfonylimino)]tris[2-deoxy-α-D-glucopyranose], dodecakis (H-sulfate) dodecasalt with trimethylamine], the “In Vitro Activity C-Late 035 Wells” value in assay [2] is recorded as “N”. Also, the “In Vitro Activity C1 026 Wells” value on activated human C1 was “+7 Wells”.
